The subject of test [1] is Bacillus cereus. The experiment in a line: Minimal inhibitory concentration against Bacillus cereus. The format is functional.
Test [2] deals with Salmonella enterica subsp. enterica serovar Abony. The experiment in a line: Minimal inhibitory concentration against Salmonella abony NCTC 6017. Type of test: functional.
In test [3] the test system is Staphylococcus epidermidis. The experiment in a line: Minimal inhibitory concentration against Staphylococcus epidermidis ATCC 12228. Type of test: functional.
Test [4] deals with Enterococcus faecalis. Put plainly: Minimal inhibitory concentration against Enterococcus faecalis (VRE) ATCC 346-VRE. Type of test: functional.
Test [5] relates to Enterococcus faecalis. The experiment in a line: Minimal inhibitory concentration against Enterococcus faecalis ATCC 29212. Type of test: functional.
Test [6] deals with Klebsiella pneumoniae. Put plainly: Minimal inhibitory concentration against Klebsiella pneumoniae ATCC 15380. The format is functional.
In test [7] the test system is Staphylococcus aureus. Put plainly: Minimal inhibitory concentration against Staphylococcus aureus ATCC 25923. Type of test: functional.
In test [8] the test system is Staphylococcus aureus. Put plainly: Minimal inhibitory concentration against methicillin resistant Staphylococcus aureus ST450; value ranges from 4-16 ug/mL. Type of test: functional.
The test system of test [9] is Enterococcus faecium. Put plainly: Minimal inhibitory concentration against Enterococcus faecium 6A-VRE. Type of test: functional.
For test [10], the system named is Escherichia coli. Put plainly: Minimal inhibitory concentration against Escherichia coli ATCC 25922. The format is functional.
Test [11] concerns Enterococcus durans. Put plainly: Minimal inhibitory concentration against Enterococcus durans ATCC 581. The format is functional.
Test [12] concerns Salmonella typhi. The experiment in a line: Minimal inhibitory concentration against Salmonella typhi (MDR) ICH 098. The format is functional, Salmonella enterica subsp. enterica serovar Typhi. The settings on record: Salmonella enterica.
The test system of test [13] is Serratia marcescens. Put plainly: Minimal inhibitory concentration against Serratia marcescens ATCC 12999. Type of test: functional.
For test [14], the system named is Pseudomonas aeruginosa. Put plainly: Minimal inhibitory concentration against Pseudomonas aeruginosa ATCC 27853. The format is functional.
In test [15] the test system is Staphylococcus epidermidis. The experiment in a line: Minimal inhibitory concentration against methicillin resistant Staphylococcus epidermidis ATCC 23760. The format is functional.
Test [16] concerns Staphylococcus aureus. The experiment in a line: Minimal inhibitory concentration against Staphylococcus aureus ATCC 25923; value ranges from 4-8 ug/mL. The format is functional.
Test [17] relates to Staphylococcus aureus. The experiment in a line: Minimal inhibitory concentration against methicillin resistant Staphylococcus aureus ST450; value ranges from 4-8 ug/mL. Type of test: functional.
In test [18] the test system is Staphylococcus aureus. Put plainly: Minimal inhibitory concentration against methicillin resistant Staphylococcus aureus ST450; value ranges from 1-2 ug/mL. The format is functional.

In brackets after ≈: the same amount, converted by molar mass.

With `CC(=O)Nc1ccc(Oc2ccc(N3C[C@H](C/N=C(/S)NN)OC3=O)cc2F)cc1`, the MIC (commonly the smallest concentration in the dilution series that meets the test's criterion for growth inhibition) in [1] was above 16 µg/mL; in [2] it was above 16 µg/mL; in [3] it was 4 µg/mL (≈ 9.23 µM); in test [4], 8 µg/mL (≈ 18.5 µM); in test [5], 4 µg/mL (≈ 9.23 µM); in test [6], above 16 µg/mL. In addition, the MIC in test [7] is 4 µg/mL (≈ 9.23 µM); in [8] it was 16 µg/mL (≈ 36.9 µM); in [9], 4 µg/mL (≈ 9.23 µM); in test [10], above 16 µg/mL; in test [11], 4 µg/mL (≈ 9.23 µM); in test [12], above 16 µg/mL. For the same compound, the MIC in [13] is above 16 µg/mL; in [14], above 16 µg/mL; in test [15], 8 µg/mL (≈ 18.5 µM).

In the case of `CO/C(S)=N\C[C@H]1CN(c2ccc(Sc3ccc(NC(C)=O)cc3)c(F)c2)C(=O)O1`, the minimal inhibitory concentration (MIC) is 8 µg/mL (≈ 17.8 µM) in test [16]; above 16 µg/mL in test [1]; above 16 µg/mL in test [2]; 4 µg/mL (≈ 8.9 µM) in test [3]; 8 µg/mL (≈ 17.8 µM) in test [4]; 4 µg/mL (≈ 8.9 µM) in test [5]. The MIC in test [6] is above 16 µg/mL; in test [17], 8 µg/mL (≈ 17.8 µM); in test [9] it was 4 µg/mL (≈ 8.9 µM); in test [10], above 16 µg/mL; in [11] it was 4 µg/mL (≈ 8.9 µM); in test [12], above 16 µg/mL. The MIC is above 16 µg/mL in test [13], above 16 µg/mL in test [14] and 8 µg/mL (≈ 17.8 µM) in test [15].

On to `CC(=O)NC[C@H]1CN(c2ccc(Sc3ccc(NC(C)=O)cc3)c(F)c2)C(=O)O1`, for which the MIC was above 16 µg/mL in test [1]; above 16 µg/mL in test [2]; 1 µg/mL (≈ 2.4 µM) in [3]; 2 µg/mL (≈ 4.79 µM) in [4]; 2 µg/mL (≈ 4.79 µM) in test [5]; above 16 µg/mL in [6]. For the same compound, the MIC in test [7] was 1 µg/mL (≈ 2.4 µM); in test [18], 2 µg/mL (≈ 4.79 µM); in test [9], 2 µg/mL (≈ 4.79 µM); in test [10] it was above 16 µg/mL; in [11], 2 µg/mL (≈ 4.79 µM); in [12], above 16 µg/mL. The results for the MIC in test [13], in test [14] and in [15] were above 16 µg/mL, above 16 µg/mL and 2 µg/mL (≈ 4.79 µM), respectively.

For `CC(=O)Nc1ccc(Sc2ccc(N3C[C@H](C/N=C(\N)S)OC3=O)cc2F)cc1`, the MIC is above 16 µg/mL in test [1]; above 16 µg/mL in test [2]; 1 µg/mL (≈ 2.3 µM) in test [3]; 2 µg/mL (≈ 4.6 µM) in test [4]; 2 µg/mL (≈ 4.6 µM) in test [5]; above 16 µg/mL in test [6]. The MIC in test [7] is 1 µg/mL (≈ 2.3 µM); in test [18], 2 µg/mL (≈ 4.6 µM); in [9] it was 2 µg/mL (≈ 4.6 µM); in test [10], above 16 µg/mL; in [11] it was 2 µg/mL (≈ 4.6 µM); in [12], above 16 µg/mL. Also, the MIC is above 16 µg/mL in [13], above 16 µg/mL in test [14] and 2 µg/mL (≈ 4.6 µM) in test [15].
